This passage reports IC50 results from patent publication US20100105651A1, “ANTAGONISTS OF SNS SODIUM CHANNELS” (priority 2005, published 2010).

pIC50: −log10 of the molar value. Structures can show the parent of a compound that is named as a salt.

The target in this experiment is T1, human NaV1.8 (hNaV1.8) ion channel (Homo sapiens, UniProt Q9Y5Y9).
T1 construct: expressed in transfected cells
Briefly: Inhibition of Human NaV1.8 stably expressed in SH-SY-5Y cells (membrane potential dye fluorescence assay). The following applies: SH-SY-5Y cells stably expressing hNaV1.8; FLIPR membrane potential dye; 10 μM pyrethroid, 250 nM TTX; test range 100 μM-0.05 μM; read-out: hNav1.8 IC50. Type of experiment: cell-based.

A word on the pIC50: it is the IC50 on a negative log10 scale, so that one unit is a factor of ten.

T1 sequence (Q9Y5Y9 whole entry): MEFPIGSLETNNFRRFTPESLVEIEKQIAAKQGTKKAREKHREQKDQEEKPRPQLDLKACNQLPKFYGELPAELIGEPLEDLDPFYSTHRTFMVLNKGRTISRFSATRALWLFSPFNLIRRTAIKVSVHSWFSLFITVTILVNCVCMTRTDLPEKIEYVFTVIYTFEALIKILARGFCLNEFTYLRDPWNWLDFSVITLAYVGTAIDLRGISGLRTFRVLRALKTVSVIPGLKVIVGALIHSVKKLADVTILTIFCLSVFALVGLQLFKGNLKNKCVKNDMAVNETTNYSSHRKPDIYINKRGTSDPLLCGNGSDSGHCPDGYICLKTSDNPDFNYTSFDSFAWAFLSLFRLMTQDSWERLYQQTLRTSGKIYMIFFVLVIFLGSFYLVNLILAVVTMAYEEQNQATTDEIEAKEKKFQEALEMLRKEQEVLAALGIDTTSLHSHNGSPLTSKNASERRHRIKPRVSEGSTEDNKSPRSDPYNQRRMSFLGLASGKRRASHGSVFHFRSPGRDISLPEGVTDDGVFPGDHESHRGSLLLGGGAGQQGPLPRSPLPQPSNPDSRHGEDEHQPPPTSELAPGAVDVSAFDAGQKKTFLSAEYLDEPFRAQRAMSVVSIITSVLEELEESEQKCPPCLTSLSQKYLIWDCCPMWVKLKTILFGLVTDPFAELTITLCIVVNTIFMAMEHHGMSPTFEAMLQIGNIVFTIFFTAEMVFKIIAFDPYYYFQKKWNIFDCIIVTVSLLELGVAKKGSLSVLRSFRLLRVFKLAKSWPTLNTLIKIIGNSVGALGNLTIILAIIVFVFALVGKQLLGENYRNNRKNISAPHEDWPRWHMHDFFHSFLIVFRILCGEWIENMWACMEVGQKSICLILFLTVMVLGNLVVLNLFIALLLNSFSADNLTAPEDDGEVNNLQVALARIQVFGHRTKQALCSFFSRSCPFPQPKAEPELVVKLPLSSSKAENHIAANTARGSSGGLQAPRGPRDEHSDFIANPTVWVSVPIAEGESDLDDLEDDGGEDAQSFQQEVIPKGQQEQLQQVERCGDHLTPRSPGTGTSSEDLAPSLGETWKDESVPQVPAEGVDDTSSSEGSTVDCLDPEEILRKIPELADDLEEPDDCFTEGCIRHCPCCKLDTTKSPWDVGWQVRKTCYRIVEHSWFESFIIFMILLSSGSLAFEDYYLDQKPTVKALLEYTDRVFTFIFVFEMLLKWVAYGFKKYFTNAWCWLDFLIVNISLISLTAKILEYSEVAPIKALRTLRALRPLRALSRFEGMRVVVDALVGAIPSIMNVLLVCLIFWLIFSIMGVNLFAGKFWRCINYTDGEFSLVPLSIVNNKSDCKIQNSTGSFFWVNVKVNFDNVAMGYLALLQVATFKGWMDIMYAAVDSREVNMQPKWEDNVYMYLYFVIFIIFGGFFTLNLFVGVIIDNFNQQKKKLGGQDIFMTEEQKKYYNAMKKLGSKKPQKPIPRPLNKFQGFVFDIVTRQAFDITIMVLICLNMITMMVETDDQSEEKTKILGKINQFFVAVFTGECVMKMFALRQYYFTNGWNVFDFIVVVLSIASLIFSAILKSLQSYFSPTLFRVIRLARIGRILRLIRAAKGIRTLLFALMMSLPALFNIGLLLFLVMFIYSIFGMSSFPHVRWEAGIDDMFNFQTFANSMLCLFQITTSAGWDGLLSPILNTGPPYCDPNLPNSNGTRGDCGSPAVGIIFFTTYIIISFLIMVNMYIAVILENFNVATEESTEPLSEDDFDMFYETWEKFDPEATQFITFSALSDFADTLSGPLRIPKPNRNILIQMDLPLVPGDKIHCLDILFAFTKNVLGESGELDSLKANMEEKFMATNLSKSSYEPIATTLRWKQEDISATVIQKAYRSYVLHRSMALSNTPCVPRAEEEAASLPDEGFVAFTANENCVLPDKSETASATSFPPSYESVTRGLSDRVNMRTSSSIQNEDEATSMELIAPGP

With `O=C(Nc1ccc(Oc2ccccc2F)cc1)N1CC(NC2CCc3cc(Cl)ccc32)C1` (stereo not drawn) [Example 133, 3-(5-Chloro-indan-1-ylamino)-azetidine-1-carboxylic acid [4-(2-fluoro-phenoxy)-phenyl]-amide], the pIC50 is 5.81.
The figure for `COc1ccc2c(c1)CCC2NC1CN(C(=O)Nc2ccc(Oc3cccc(F)c3)cc2)C1` (stereo not drawn) [Example 134, 3-(5-Methoxy-indan-1-ylamino)-azetidine-1-carboxylic acid [4-(3-fluoro-phenoxy)-pheny]-amide] is 6.77.
For `O=C(Nc1ccc(Oc2ccc(F)cc2)nc1)N1CC(NC2CCc3cc(F)ccc32)C1` (stereo not drawn) [Example 135, 3-(5-Fluoro-indan-1-ylamino)-azetidine-1-carboxylic acid [6-(4-fluoro-phenoxy)-pyridin-3-yl]-amide methanesulfonate salt], the negative-log IC50 (pIC50) is 5.66.
To `O=C(Nc1ccc(Oc2ccc(F)cc2)cc1)N1CC(NC2CCc3cc(F)ccc32)C1` (stereo not drawn) [Example 136, 3-(5-Fluoro-indan-1-ylamino)-azetidine-1-carboxylic acid [4-(4-fluoro-phenoxy)-phenyl]-amide methanesulfonate salt] belongs 6.68; to `O=C(Nc1ccc(Oc2ccccc2)cc1)N1CC(NC2CCc3cc(F)ccc32)C1` (stereo not drawn) [Example 137, 3-(5-Fluoro-indan-1-ylamino)-azetidine-1-carboxylic acid (4-phenoxy-phenyl)-amide fumarate salt], 6.57.
To `O=C(Nc1ccc(Oc2ccc(F)cc2)cc1)N1CC(NC2CCc3cc(Cl)ccc32)C1` (stereo not drawn) [Example 138, 3-(5-Chloro-indan-1-ylamino)-azetidine-1-carboxylic acid [4-(4-fluoro-phenoxy)-phenyl]-amide methanesulfonate salt] belongs 6.37.
